Here are results for eight compounds from patent US12312319B2, “Isoxazoline compounds, their preparation methods and use” (METISA BIOTECHNOLOGY CO., LTD, priority 2019, dated 2025).

Holding throughout (assay type): in vivo
For one experiment, the system named is Leucania separata. Kind of experiment: Insecticidal activity against Leucania separata, Airbrush spraying of corn leaf segments. Particulars: Mythimna separata, foliar, 72 h, 3rd instar larvae, 3 days after administration; for mortality at 1.25 µg/mL: 1.25 mg/L; for mortality at 2.5 µg/mL: 2.5 mg/L; for mortality at 5 µg/mL: 5 mg/L; for mortality at 10 µg/mL: 10 mg/L. On the procedure: (§1) The compound to be determined was dissolved in a mixed solvent of acetone/methanol (1:1), followed by dilution with water containing 0.1% (wt) Tween 80 to a desired concentration.
(§2) The activities of the respective compounds against Leucania separata, Plutella xylostella, and Chilo suppressalis were determined by Airbrush spraying method.
(§3) The determination method was as follows: Corn leaves were cut into 2 cm long segments; the pressure of Airbrush spraying was 10 psi (about 0.7 kg/cm^2); both sides of each leaf segment were sprayed with 0.5 mL of the compound solution to be tested. After drying in the shade, ten 3rd instar larvae were inoculated for each treatment, and each treatment was replicated 3 times. After treatment, they were cultured in an observation room at a temperature of 25° C. and a relative humidity of 60-70%, and the number of surviving insects was examined and the mortality was calculated three days after administration.

In a further experiment the test system is Plutella xylostella. Kind of experiment: Insecticidal activity against Plutella xylostella, Airbrush spraying of cabbage leaf discs. Particulars: foliar, 72 h, 3rd instar larvae, 3 days after administration; for mortality at 2.5 µg/mL: 2.5 mg/L; for mortality at 5 µg/mL: 5 mg/L; for mortality at 10 µg/mL: 10 mg/L. On the procedure: as §1, §2
as §3, with “Cabbage” for “Corn”, “made” for “cut”, “into leaf discs with a diameter of” for “into”, “by using a hole puncher;” for “long segments;”, “disc” for “segment”

Another experiment relates to Chilo suppressalis. Kind of experiment: Insecticidal activity against Chilo suppressalis, spraying of rice seedlings. To be noted: 72 h, 3rd instar larvae, 3 days after administration; for mortality at 0.625 µg/mL: 0.625 mg/L; for mortality at 2.5 µg/mL: 2.5 mg/L; for mortality at 10 µg/mL: 10 mg/L. On the procedure: as §1, §2
The determination method was as follows: 1) Preparation of rice seedlings: rice plants were cultivated in a plastic cup with a diameter of 4.5 cm and a height of 4 cm in a thermostatic chamber (temperature 26-28° C., relative humidity 60-80%, illumination 16 hL: 8 hD), and when the rice plants were developed to have 4-5 leaves, strong seedlings with identical growth vigour were selected for chemical treatment, and each treatment was replicated 3 times. 2) Preparation of insects to be tested: Chilo suppressalis, 3rd instar larvae, continuous lab rearing. 3) Inoculation of insects by spraying rice plant stems: The whole rice seedlings were sprayed evenly by using the spraying method, with 15 mL of the compound solution for each treatment. Firstly, the blank control was treated, and then the above procedure was replicated according to the order of test concentration from low to high. After rice seedlings were spray-treated, they were placed in the shade to dry, and the stems about 5 cm from the stem bases were cut off to feed the insects to be tested. Glass culture dishes with a diameter of 90 mm were prepared; each dish was padded with a filter paper at the bottom and added with water to keep moisture; about 5 rice stems were put into each dish and inoculated with 10 larvae, and each culture dish was then sealed with a non-woven and cultured in a thermostatic chamber. The number of residual live insects was examined 3 days after administration.

For a further experiment, the system named is Tetranychus cinnabarinus. Kind of experiment: Acaricidal activity against Tetranychus cinnabarinus in greenhouse, bean seedling spraying. Particulars: adult mites, 3 days (72 hours) after treatment; for mortality at 0.625 µg/mL: 0.625 mg/L; for mortality at 1.25 µg/mL: 1.25 mg/L; for mortality at 2.5 µg/mL: 2.5 mg/L; for mortality at 5 µg/mL: 5 mg/L. On the procedure:
The compounds of the invention were determined for the acaricidal activity in greenhouse. The determination method was as follows:
A bean seedling with two true leaves was taken for inoculating 30-40 adult mites of Tetranychus cinnabarinus. After examining the cardinal number, the whole seedling was treated by spraying with a hand-held sprayer, each treatment being replicated 3 times, and then placed in a standard observation room. The number of surviving mites was examined after 72 hours, and the mortality was calculated.

On to `CCOCC(=O)N(C(=O)c1ccc(C2=NOC(c3cc(Cl)cc(Cl)c3)(C(F)(F)F)C2)cc1C)[C@@H]1CON(CC)C1=O` (mixture of isomers) [Compound 114], for which, in the experiment on Leucania separata, the mortality (commonly the share of the test organisms that died) at 1.25 µg/mL worked out at 100%, the mortality at 2.5 µg/mL came out at 100%, the mortality at 5 µg/mL is 100% and the mortality at 10 µg/mL was determined as 100%. In addition, in the experiment on Plutella xylostella, the mortality at 2.5 µg/mL was found to be 60%, the mortality at 5 µg/mL came out at 86.7% and the mortality at 10 µg/mL was found to be 100%. In addition, in the experiment with Chilo suppressalis, the mortality at 0.625 µg/mL turned out to be 83.3%, the mortality at 2.5 µg/mL turned out to be 100% and the mortality at 10 µg/mL worked out at 100%. Moreover, in the experiment with Tetranychus cinnabarinus, the mortality at 0.625 µg/mL came to 100%, the mortality at 1.25 µg/mL amounted to 100%, the mortality at 2.5 µg/mL is 100% and the mortality at 5 µg/mL was 100%.

As to `CCN1OC[C@@H](N(C(=O)c2ccc(C3=NOC(c4cc(Cl)cc(Cl)c4)(C(F)(F)F)C3)cc2C)C(=O)C2CC2)C1=O` (mixture of isomers) [Compound 112], in the experiment with Leucania separata, the mortality at 1.25 µg/mL turned out to be 80%, the mortality at 2.5 µg/mL amounted to 96.7%, the mortality at 5 µg/mL is 100% and the mortality at 10 µg/mL came to 100%. In the experiment on Plutella xylostella, this compound showed a mortality at 5 µg/mL of 70% and a mortality at 10 µg/mL of 100%. Further, in the experiment on Chilo suppressalis, the mortality at 0.625 µg/mL is 96.7%, the mortality at 2.5 µg/mL is 100% and the mortality at 10 µg/mL was determined as 100%. In addition, in the experiment with Tetranychus cinnabarinus, the mortality at 0.625 µg/mL is 96.7%, the mortality at 1.25 µg/mL worked out at 100%, the mortality at 2.5 µg/mL amounted to 100% and the mortality at 5 µg/mL is 100%.

As to `CCN1OC[C@@H](N(C(=O)COC)C(=O)c2ccc(C3=NOC(c4cc(Cl)cc(Cl)c4)(C(F)(F)F)C3)cc2C)C1=O` (mixture of isomers) [Compound 113], in the experiment with Leucania separata, the mortality at 1.25 µg/mL worked out at 100%, the mortality at 2.5 µg/mL worked out at 100%, the mortality at 5 µg/mL stood at 100% and the mortality at 10 µg/mL is 100%. In the experiment with Plutella xylostella, this compound came in with a mortality at 2.5 µg/mL of 66.7%, a mortality at 5 µg/mL of 90% and a mortality at 10 µg/mL of 100%. Also, in the experiment on Chilo suppressalis, the mortality at 0.625 µg/mL is 86.7%, the mortality at 2.5 µg/mL came out at 100% and the mortality at 10 µg/mL was 100%. Further, in the experiment with Tetranychus cinnabarinus, the mortality at 0.625 µg/mL worked out at 100%, the mortality at 1.25 µg/mL was found to be 100%, the mortality at 2.5 µg/mL was determined as 100% and the mortality at 5 µg/mL turned out to be 100%.

In the case of `CCN1OC[C@@H](N(C(=O)COC)C(=O)c2ccc(C3=NOC(c4cc(Cl)c(F)c(Cl)c4)(C(F)(F)F)C3)cc2C)C1=O` (mixture of isomers) [Compound 121], in the experiment with Leucania separata, the mortality at 1.25 µg/mL turned out to be 100%, the mortality at 2.5 µg/mL turned out to be 100%, the mortality at 5 µg/mL is 100% and the mortality at 10 µg/mL came to 100%. In addition, in the experiment with Plutella xylostella, the mortality at 2.5 µg/mL worked out at 86.7%, the mortality at 5 µg/mL was determined as 100% and the mortality at 10 µg/mL was 100%. Further, in the experiment on Chilo suppressalis, the mortality at 0.625 µg/mL came out at 90%, the mortality at 2.5 µg/mL was found to be 100% and the mortality at 10 µg/mL was 100%. Further, in the experiment on Tetranychus cinnabarinus, the mortality at 0.625 µg/mL came out at 100%, the mortality at 1.25 µg/mL worked out at 100%, the mortality at 2.5 µg/mL was 100% and the mortality at 5 µg/mL was 100%.

Turning to `CCN1OC[C@@H](N(C(C)=O)C(=O)c2ccc(C3=NOC(c4cc(Cl)cc(Cl)c4)(C(F)(F)F)C3)cc2C)C1=O` (mixture of isomers) [Compound 109], in the experiment with Leucania separata, the mortality at 1.25 µg/mL turned out to be 26.7%, the mortality at 2.5 µg/mL amounted to 63.3%, the mortality at 5 µg/mL worked out at 83.3% and the mortality at 10 µg/mL came out at 100%. Moreover, in the experiment on Plutella xylostella, the mortality at 5 µg/mL came to 70% and the mortality at 10 µg/mL worked out at 100%. In the experiment on Chilo suppressalis, this compound showed a mortality at 0.625 µg/mL of 80%, a mortality at 2.5 µg/mL of 100% and a mortality at 10 µg/mL of 100%. In the experiment with Tetranychus cinnabarinus, this compound showed a mortality at 0.625 µg/mL of 16.7%, a mortality at 1.25 µg/mL of 70%, a mortality at 2.5 µg/mL of 100% and a mortality at 5 µg/mL of 100%.

As to `CCOCC(=O)N(C(=O)c1ccc(C2=NOC(c3cc(Cl)c(F)c(Cl)c3)(C(F)(F)F)C2)cc1C)[C@@H]1CON(CC)C1=O` (mixture of isomers) [Compound 122], in the experiment with Leucania separata, the mortality at 1.25 µg/mL is 100%, the mortality at 2.5 µg/mL stood at 100%, the mortality at 5 µg/mL was 100% and the mortality at 10 µg/mL came out at 100%. In the experiment with Plutella xylostella, this compound had a mortality at 2.5 µg/mL of 70%, a mortality at 5 µg/mL of 100% and a mortality at 10 µg/mL of 100%. In the experiment on Chilo suppressalis, this compound returned a mortality at 0.625 µg/mL of 93.3%, a mortality at 2.5 µg/mL of 100% and a mortality at 10 µg/mL of 100%. In the experiment with Tetranychus cinnabarinus, this compound displayed a mortality at 0.625 µg/mL of 100%, a mortality at 1.25 µg/mL of 100%, a mortality at 2.5 µg/mL of 100% and a mortality at 5 µg/mL of 100%.

In the experiment on Leucania separata, `CCN1OC[C@@H](N(C(=O)c2ccc(C3=NOC(c4cc(Cl)c(F)c(Cl)c4)(C(F)(F)F)C3)cc2C)C(=O)C2CC2)C1=O` (mixture of isomers) [Compound 120] came in with a mortality at 1.25 µg/mL of 100%, a mortality at 2.5 µg/mL of 100%, a mortality at 5 µg/mL of 100% and a mortality at 10 µg/mL of 100%. In the experiment on Plutella xylostella, this compound came in with a mortality at 2.5 µg/mL of 83.3%, a mortality at 5 µg/mL of 100% and a mortality at 10 µg/mL of 100%. In the experiment with Chilo suppressalis, this compound came in with a mortality at 0.625 µg/mL of 96.7%, a mortality at 2.5 µg/mL of 100% and a mortality at 10 µg/mL of 100%. Moreover, in the experiment on Tetranychus cinnabarinus, the mortality at 0.625 µg/mL stood at 100%, the mortality at 1.25 µg/mL came to 100%, the mortality at 2.5 µg/mL came to 100% and the mortality at 5 µg/mL amounted to 100%.

Regarding `CCN1OC[C@@H](N(C(=O)OC)C(=O)c2ccc(C3=NOC(c4cc(Cl)cc(Cl)c4)(C(F)(F)F)C3)cc2C)C1=O` (stereo partly shown) [Comparative compound, reference compound], in the experiment with Leucania separata, the mortality at 1.25 µg/mL is 0%, the mortality at 2.5 µg/mL was 0%, the mortality at 5 µg/mL is 13.3% and the mortality at 10 µg/mL was determined as 73.3%. In the experiment on Plutella xylostella, this compound yielded a mortality at 2.5 µg/mL of 0%, a mortality at 5 µg/mL of 30% and a mortality at 10 µg/mL of 76.7%. In the experiment with Chilo suppressalis, this compound came in with a mortality at 0.625 µg/mL of 0%, a mortality at 2.5 µg/mL of 0% and a mortality at 10 µg/mL of 16.7%. In the experiment on Tetranychus cinnabarinus, the mortality at 1.25 µg/mL came out at 20%, the mortality at 2.5 µg/mL is 73.3% and the mortality at 5 µg/mL came to 100%.
